Results on one molecule are retold here after patent US20220184091A1, “Methods of Treating Cancer with Chk1 Inhibitors” (Sierra Oncology, Inc., priority 2019, published 2022).

Read-outs that look alike come from different tables or passages of the source. Where only a bound is given, the exact number is not on record here.

The nature of data set [1]: SRA737 plasma and tumor concentrations in HT29 xenograft model. The class given is in vivo. The note with it: mouse, oral. How it is done:
For each dose, columns from left to right are concentrations in plasma at 6 hours, plasma at 24 hours, tumor at 6 hours, and tumor at 24 hours, respectively.
The effect of SRA737 on Gemcitabine induced Chk1 S296 autophosphorylation was assessed as described in Walton et al. (Oncotarget. 2016 Jan. 19; 7(3): 2329-2342), herein incorporated by reference for all it teaches. Briefly, mice bearing HT29 tumor xenografts were administered (i) vehicle control or (ii) gemcitabine (100 mg/kg in saline, IV) or ([…]) and gemcitabine (100 mg/kg) with SRA737 administered 24 hours following gemcitabine administration (n=3 per time point per treatment). […] Exposure in the tumor was greater than 10-fold higher than in plasma. The circulating plasma concentration at this 24-hour timepoint corresponded to a free drug concentration of approximately 6 nM (2 ng/mL) based on plasma protein binding in mice of 94%.

Another data set relates to H69. Briefly: Micronuclei assay, H69. The class given is cell-based, human. The note with it: 1 μM, 24 hours or 48 hours. The procedure: H69 cells were cultured as discussed earlier and treated with or without SRA737 (1 μM). Cytochalasin B was added at 20th hour to each culture to give a final concentration of 3 μg/ml and the culture was incubated at 37° C. for up to 24 hrs. After 24 hrs incubation, the cells were centrifuged at 1000 rpm for 5 min. The supernatant was removed and the pellet was treated with weak hypotonic solution (0.075 M KCl/0.9% Saline, 1:9) and incubated at 37° C. for 5 min. After this, the cells were centrifuged and the pellets were fixed in fresh fixative (methanol:acetic acid, 3:1). Cells were dropped onto glass slides were prepared and stained with ProLong® Gold Antifade Mountant with DAPI. In the case of EMT-6 cells, micronuclei formation assays were performed at Phenovista Biosciences, San Diego. The cells were treated with either 1 μM or 5 μM SRA737 for 24h followed by mixing with 4% PFA for 20 minutes at RT directly in the culture wells, washing with PBS and staining with Hoechst (1:1000). The plates were imaged at 40× using the Thermo Fisher Scientific CellInsight CX7 imaging system and the micronuclei algorithm was adjusted to score all nuclei that are <55% of the size of the main nucleus. A total of 25 fields per well were imaged and the data was averaged across 8 replicates.
SRA737 was also evaluated for induced cytogenetic stress using a micronuclei (MN) assay.

A further data set has as its system IFNβ, CXCL10 and CCL5. Briefly: qPCR of IFNβ, CXCL10 and CCL5 mRNA in SCLC cell lines. In kind it is cell-based. The note with it: 24 and 72 hours. The procedure: “Con” indicates control. Data presented as mean±SD and p values by t-test ***p<0.001.
Real-time PCR was done using SYBR Select Master Mix (Life Technologies, cat #4472908) according to the manufacturer's protocol. Primers were purchased from Sigma Aldrich, Inc. Triplicate PCR reactions were run on ABI (7500 Fast Real Time PCR System). The comparative Ct method using the average 2ΔΔCT value for each set of triplicates was used, and the average of the biological replicates was calculated. Negative controls were included for every primer set, and GAPDH was used as the […].
In general terms: Real-time PCR tracks product formation cycle by cycle.

On to `N#Cc1cnc(Nc2cc(NCC3CNCCO3)c(C(F)(F)F)cn2)cn1` (centres unmarked) [SRA737, 5-[[4-[[morpholin-2-yl]methylamino]-5-(trifluoromethyl)-2-pyridyl]amino]pyrazine-2-carbonitrile], for which the concentration at 6 h in data set [1] (plasma, HT29 xenograft, Dose 12.5 mg/kg, read-out: Plasma (6 h)) worked out at 1.01 µM; in data set [1] (plasma, HT29 xenograft, Dose 25 mg/kg, read-out: Plasma (6 h)), 2.52 µM; in data set [1] (plasma, HT29 xenograft, Dose 50 mg/kg, read-out: Plasma (6 h)), 3.96 µM; in data set [1] (plasma, HT29 xenograft, Dose 100 mg/kg, read-out: Plasma (6 h)), 5.84 µM; in data set [1] (tumor, HT29 xenograft, Dose 3.125 mg/kg, read-out: Tumor (6 h)) it was 3.18 µM; in data set [1] (tumor, HT29 xenograft, Dose 6.25 mg/kg, read-out: Tumor (6 h)) it was 4.01 µM. Also, the concentration at 6 h in data set [1] (tumor, HT29 xenograft, Dose 12.5 mg/kg, read-out: Tumor (6 h)) was 19 µM; in data set [1] (tumor, HT29 xenograft, Dose 25 mg/kg, read-out: Tumor (6 h)) it was 37.5 µM; in data set [1] (tumor, HT29 xenograft, Dose 50 mg/kg, read-out: Tumor (6 h)) it was 76.3 µM; in data set [1] (tumor, HT29 xenograft, Dose 100 mg/kg, read-out: Tumor (6 h)), 132 µM. Also, the concentration at 24 h is 0.0777 µM in data set [1] (plasma, HT29 xenograft, Dose 12.5 mg/kg, read-out: Plasma (24 h)); 0.893 µM in data set [1] (plasma, HT29 xenograft, Dose 25 mg/kg, read-out: Plasma (24 h)); 0.512 µM in data set [1] (plasma, HT29 xenograft, Dose 50 mg/kg, read-out: Plasma (24 h)); 1.67 µM in data set [1] (plasma, HT29 xenograft, Dose 100 mg/kg, read-out: Plasma (24 h)); over 0.1 µM in data set [1] (plasma, mice, PK/PD benchmark); 0.646 µM in data set [1] (tumor, HT29 xenograft, Dose 3.125 mg/kg, read-out: Tumor (24 h)). Further, the concentration at 24 h in data set [1] (tumor, HT29 xenograft, Dose 6.25 mg/kg, read-out: Tumor (24 h)) was found to be 0.966 µM; in data set [1] (tumor, HT29 xenograft, Dose 12.5 mg/kg, read-out: Tumor (24 h)), 3.97 µM; in data set [1] (tumor, HT29 xenograft, Dose 25 mg/kg, read-out: Tumor (24 h)), 16.3 µM; in data set [1] (tumor, HT29 xenograft, Dose 50 mg/kg, read-out: Tumor (24 h)), 27.5 µM; in data set [1] (tumor, HT29 xenograft, Dose 100 mg/kg, read-out: Tumor (24 h)), 102 µM. Also, the micronuclei formation result in the data set on H69 is “led to micronuclei formation”. In addition, the “IFNβ, CXCL10 and CCL5 (targets of IRF3)” value in the data set on IFNβ, CXCL10 and CCL5 is on record as “activated”.
